Measured values taken from patent US11931372B2, “Pharmaceutical composition containing pentacyclic triterpenoids” (SPV TIMSER, S.A.P.I. DE C.V., priority 2021, dated 2024).
Like-named read-outs stand apart in the source and are kept apart here.

Tests used:
[1] = system: murine respiratory tract tissue; settings: mouse, in vivo, 14 days
[2] = Pharmacokinetic study in healthy volunteers, inhaled route by nebulizer; type: in vivo, human; settings: GA by inhalation, FIGS. 13 and 14
Experimental: Alternative tests were conducted to verify the synergistic behavior of the compositions of interest. For this reason, the results of pharmacokinetic studies are described and disclosed herein below. The study was based on the application of different versions of the herein claimed pharmaceutical composition to healthy volunteers by the inhaled route of administration, by means of a nebulizer device. The volunteers were given the drug once every 24 hours for three days. In addition, blood samples were taken from them at different time points. These samples were analyzed to quantify glycyrrhizinic acid (GA) and Enoxolone (EN) contents through the mass coupled HPLC methodology. […]
Blood samples of 5 mL were taken from each of the individuals at 30 minutes and at 1, 2, 3, 6, 12, 24, 48, 72 and 96 hours after drug administration. Then, the AG and EN concentrations in these blood samples were determined using the mass coupled HPLC methodology. In all cases, both components were quantified.
The following tables denote pharmacokinetic results (Area Under the Curve (AUC)) of the two drugs assessed (GA and EN). The Area Under the Curve (AUC) is a parameter related to the drug quantity to which the body has been exposed. […] The AUC was calculated using the R programming language within the “PK” software bundle. […]

SARS-CoV = settings: culture cells; cited from earlier work
[3] = 75 mg of GA administered orally; cited from earlier work
[4] = system: murine respiratory tract tissue; assay: Toxicity and irritability assay by the inhaled route in murine rodents, histopathological lesion score; settings: for Degenerative: Alveolar lesion score / Degenerative: Bronchial lesion score / Degenerative: Bronchiolar lesion score / Fibrosis: Alveolar Septa lesion score / Fibrosis: Peribronchial lesion score / Fibrosis: Peribronchiolar lesion score / Inflammatory: Bronchiolitis lesion score / Inflammatory: Bronchitis lesion score / Inflammatory: Hyaline Membrane lesion score / Inflammatory: Interstitial Pneumonia lesion score / Inflammatory: Vasculitis lesion score / Necrosis: Alveolar lesion score / Necrosis: Bronchial lesion score / Necrosis: Bronchiolar lesion score / Vascular: Alveolar edema lesion score / Vascular: Congestion lesion score / Vascular: Hemorrhage lesion score / Vascular: Interstitial edema lesion score / Vascular: Thrombosis lesion score / TOTAL damage and lesion rating: inhaled 10 min/day for 14 days; for Degenerative: Alveolar lesion score / Degenerative: Bronchial lesion score / Degenerative: Bronchiolar lesion score / Fibrosis: Alveolar Septa lesion score / Fibrosis: Peribronchial lesion score / Fibrosis: Peribronchiolar lesion score / Inflammatory: Bronchiolitis lesion score / Inflammatory: Bronchitis lesion score / Inflammatory: Hyaline Membrane lesion score / Inflammatory: Interstitial Pneumonia lesion score / Inflammatory: Vasculitis lesion score / Necrosis: Alveolar lesion score / Necrosis: Bronchial lesion score / Necrosis: Bronchiolar lesion score / Vascular: Alveolar edema lesion score / Vascular: Congestion lesion score / Vascular: Hemorrhage lesion score / Vascular: Interstitial edema lesion score / Vascular: Thrombosis lesion score: score 0-5; for TOTAL damage and lesion rating: sum of scores

In the case of `CC1(C)[C@@H](O)CC[C@]2(C)[C@H]3C(=O)C=C4[C@@H]5C[C@@](C)(C(=O)O)CC[C@]5(C)CC[C@@]4(C)[C@]3(C)CC[C@@H]12` [EN, 18-β glycyrrhetinic acid], the “Degenerative: Alveolar lesion score” value [1] is reported as 0, the “Fibrosis: Alveolar Septa lesion score” value [1] is reported as 0 and the “Fibrosis: Peribronchial lesion score” value [1] is reported as 0. For the same compound, the “Fibrosis: Peribronchiolar lesion score” value [1] was 0, the “Inflammatory: Bronchiolitis lesion score” value [1] was 0 and the “Inflammatory: Bronchitis lesion score” value [1] was 0. For the same compound, the “Inflammatory: Hyaline Membrane lesion score” value [1] was 0, the “Inflammatory: Vasculitis lesion score” value [1] was 0 and the “Necrosis: Alveolar lesion score” value [1] was 0. For the same compound, the “Necrosis: Bronchial lesion score” value [1] was 0, the “Necrosis: Bronchiolar lesion score” value [1] was 0 and the “Vascular: Alveolar edema lesion score” value [1] was 0. The “Vascular: Congestion lesion score” value [1] was 2, the “Vascular: Hemorrhage lesion score” value [1] was 1 and the “Vascular: Thrombosis lesion score” value [1] was 0.

For `CC1(C)[C@@H](O[C@H]2O[C@H](C(=O)O)[C@@H](O)[C@H](O)[C@H]2O[C@@H]2O[C@H](C(=O)O)[C@@H](O)[C@H](O)[C@H]2O)CC[C@]2(C)[C@H]3C(=O)C=C4[C@@H]5C[C@@](C)(C(=O)O)CC[C@]5(C)CC[C@@]4(C)[C@]3(C)CC[C@@H]12` [GA, glycyrrhizic acid], the “Time of initial peak value” [2] is listed as 60 min, the “Inhibition of SARS-CoV replication” value (SARS-CoV) is listed as “prevented virus replication in culture cells” and the “EN concentration obtained by oral administration” value [3] is listed as 200.3 ng/mL. For the same compound, the “Degenerative: Alveolar lesion score” value ([4]; High dosage) was 0, the “Degenerative: Bronchial lesion score” value ([4]; High dosage) was 1 and the “Degenerative: Bronchiolar lesion score” value ([4]; High dosage) was 1. The “Fibrosis: Alveolar Septa lesion score” value ([4]; High dosage) was 0, the “Fibrosis: Peribronchial lesion score” value ([4]; High dosage) was 0 and the “Fibrosis: Peribronchiolar lesion score” value ([4]; High dosage) was 0. The “Inflammatory: Bronchiolitis lesion score” value ([4]; High dosage) was 0, the “Inflammatory: Bronchitis lesion score” value ([4]; High dosage) was 0 and the “Inflammatory: Hyaline Membrane lesion score” value ([4]; High dosage) was 0. For the same compound, the “Inflammatory: Interstitial Pneumonia lesion score” value ([4]; High dosage) was 3.5, the “Inflammatory: Vasculitis lesion score” value ([4]; High dosage) was 0 and the “Necrosis: Alveolar lesion score” value ([4]; High dosage) was 0. For the same compound, the “Necrosis: Bronchial lesion score” value ([4]; High dosage) was 1, the “Necrosis: Bronchiolar lesion score” value ([4]; High dosage) was 0 and the “Vascular: Alveolar edema lesion score” value ([4]; High dosage) was 0. The “Vascular: Congestion lesion score” value ([4]; High dosage) was 2, the “Vascular: Hemorrhage lesion score” value ([4]; High dosage) was 2 and the “Vascular: Interstitial edema lesion score” value ([4]; High dosage) was 2. The “Vascular: Thrombosis lesion score” value ([4]; High dosage) was 0, the “TOTAL damage and lesion rating” value ([4]; High dosage) was 12.5 and the “Degenerative: Alveolar lesion score” value ([4]; Low dosage) was 0. The “Degenerative: Bronchial lesion score” value ([4]; Low dosage) was 0.5, the “Degenerative: Bronchiolar lesion score” value ([4]; Low dosage) was 0.5 and the “Fibrosis: Alveolar Septa lesion score” value ([4]; Low dosage) was 0. For the same compound, the “Fibrosis: Peribronchial lesion score” value ([4]; Low dosage) was 0, the “Fibrosis: Peribronchiolar lesion score” value ([4]; Low dosage) was 0 and the “Inflammatory: Bronchiolitis lesion score” value ([4]; Low dosage) was 0. For the same compound, the “Inflammatory: Bronchitis lesion score” value ([4]; Low dosage) was 0, the “Inflammatory: Hyaline Membrane lesion score” value ([4]; Low dosage) was 0 and the “Inflammatory: Interstitial Pneumonia lesion score” value ([4]; Low dosage) was 3. The “Inflammatory: Vasculitis lesion score” value ([4]; Low dosage) was 0, the “Necrosis: Alveolar lesion score” value ([4]; Low dosage) was 0 and the “Necrosis: Bronchial lesion score” value ([4]; Low dosage) was 0. For the same compound, the “Necrosis: Bronchiolar lesion score” value ([4]; Low dosage) was 0, the “Vascular: Alveolar edema lesion score” value ([4]; Low dosage) was 0 and the “Vascular: Congestion lesion score” value ([4]; Low dosage) was 2. For the same compound, the “Vascular: Hemorrhage lesion score” value ([4]; Low dosage) was 3, the “Vascular: Interstitial edema lesion score” value ([4]; Low dosage) was 1 and the “Vascular: Thrombosis lesion score” value ([4]; Low dosage) was 0. For the same compound, the “TOTAL damage and lesion rating” value ([4]; Low dosage) was 10 and the “Effect on basal lesions (in words)” value ([4]; increases according to the amount of administered drug) was “generation of additional lesions to the basal lesions”.
